17 molecules from article PMC8151276, “An Integrated Approach toward NanoBRET Tracers for Analysis of GPCR Ligand Engagement” (Molecules, 2021) can be followed below.

In one experiment the target is T1, EDNRB (Homo sapiens, UniProt P24530).
T1 construct: purchased Promega (in-house HiBiT-GPCR construct library, NanoBRET)
T1 sequence (P24530 27-442): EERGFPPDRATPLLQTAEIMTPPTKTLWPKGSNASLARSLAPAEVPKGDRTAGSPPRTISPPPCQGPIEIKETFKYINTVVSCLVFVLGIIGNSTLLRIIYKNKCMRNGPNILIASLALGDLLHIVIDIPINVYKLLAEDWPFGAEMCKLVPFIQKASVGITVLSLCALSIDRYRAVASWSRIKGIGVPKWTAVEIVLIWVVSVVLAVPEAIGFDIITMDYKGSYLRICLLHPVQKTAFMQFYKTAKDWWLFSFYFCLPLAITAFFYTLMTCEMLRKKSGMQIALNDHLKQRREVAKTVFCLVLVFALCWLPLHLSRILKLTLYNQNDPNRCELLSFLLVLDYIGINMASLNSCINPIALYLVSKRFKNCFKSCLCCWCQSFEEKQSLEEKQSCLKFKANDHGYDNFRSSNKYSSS
The experiment can be described thus: NanoBRET screen HiBiT-EDNRB in HEK293. The experiment is classed as binding. On the procedure:
(§1) Each tracer candidate was screened across the entire library of HiBiT-GPCR constructs using NanoBRET as the detection modality. As depicted in Figure 4A, the specificity of interactions was evaluated through decrease in BRET due to competitive displacement of a bound tracer by excess parental compound. Each tracer was analyzed for binding to each HiBiT-GPCR fusion in the absence and in the presence of competing parental compound. Briefly, HEK293 cells were transfected with HiBiT-GPCR constructs diluted into promoterless DNA to reduce expression and maximize translocation to the cell surface. Each tracer candidate was then screened at concentrations of 1 μM and 0.1 μM across cells expressing these fusions. Cells were treated for 1.5 h with tracer either alone or in the presence of 20 μM competing parental compound (i.e., control). BRET was measured upon addition of purified LgBiT and subsequent complementation with HiBiT genetically fused to a GPCR. The specificity of interactions was assessed through a decrease in BRET signal due to competitive displacement of the bound tracer. To further gauge the robustness of these interactions, the fold response over the control (i.e., BRETtracer/BRETcontrol) was calculated. We chose a 1.5-fold response, which translates to ≥7-fold signal over noise as the minimal threshold required to score an interaction as positive.
(§2) HiBiT-GPCR DNA constructs were diluted in 10 mM Tris pH 8 to a final concentration of 0.01 μg/μL, arrayed in 96-well plates and stored at −20 °C. For transfection, HEK293 cells were suspended in Opti-MEM (without phenol red) supplemented with 2% fetal bovine serum (Seradigm) and 100 units/mL penicillin–streptomycin (Gibco) at a final concentration of 220,000 cells/mL and dispensed into white 96-well plates at 90 μL/well. Subsequent transfections and screens were carried using an Agilent Bravo Automated Liquid Handling Platform. First, the 96-well HiBiT DNA arrays were diluted 25-fold in Opti-MEM (without serum or phenol red) to a final concentration of 0.0004 μg/μL and 20 μL of the diluted DNAs were transferred into new 96-well plates. Next, promoterless carrier DNA (1 μg/μL) was diluted 25-fold (0.04 μg/μL) and then dispensed into the diluted arrays at 20 μL/well. Following brief mixing, Viafect transfection reagent (Promega) diluted 16-fold into Opti-MEM was dispensed into the plates at 40 μL/well. After mixing by pipetting, plates were incubated for 10 min on the pipetting station deck. The DNA-transfection reagent complexes were then added to plates containing cells. To facilitate the screen, 10 μL of DNA-transfection reagent complexes were added in duplicates to the top 4 and bottom 4 rows, resulting in two identical 48-well arrays per plate. Plates with transfected cells were incubated for 18–20 h at 37 °C/5% CO2. A screen of each tracer across the entire library using two different concentrations requires duplicate plates of transfected cells. Depending on the number of tracers being screened, transfections can be scaled up using the same ratios. The next day, for each tracer, four 20× screening solutions in tracer dilution buffer (Promega) were prepared: two duplicates at final concentration of 20 μM and two duplicates at a final concentration of 2 μM. […] The four resulting solutions were diluted 4-fold in Opti-MEM without serum or phenol red to generate 5× solutions (5 µM and 0.5 µM tracer +/− 100 μM competing compound). To screen the library, a BioTek MultiFlo FX liquid dispenser was used to dispense 22.5 µL of tracer solution to the top 4 rows and 22.5 µL tracer + competing compound solution to the 4 bottom rows. Plates were briefly mixed on an orbital shaker and incubated for 1.5 h at room temperature. […] Plates were briefly mixed on an orbital shaker and incubated for 15 min to allow complementation.
A general note: Bioluminescence resonance energy transfer reports proximity on the nanometre scale.

In another experiment the target is T2, MCHR2 (Homo sapiens, UniProt Q969V1).
T2 construct: purchased Promega (in-house HiBiT-GPCR construct library, NanoBRET)
The experiment can be described thus: NanoBRET screen HiBiT-MCHR2 in HEK293. In kind it is binding. On the procedure:
as §1, §2

The mark [1] stands for this setting: tracer at 1μM, listed as amitriptyline-b-2-NB590.

T2 sequence (Q969V1 whole entry): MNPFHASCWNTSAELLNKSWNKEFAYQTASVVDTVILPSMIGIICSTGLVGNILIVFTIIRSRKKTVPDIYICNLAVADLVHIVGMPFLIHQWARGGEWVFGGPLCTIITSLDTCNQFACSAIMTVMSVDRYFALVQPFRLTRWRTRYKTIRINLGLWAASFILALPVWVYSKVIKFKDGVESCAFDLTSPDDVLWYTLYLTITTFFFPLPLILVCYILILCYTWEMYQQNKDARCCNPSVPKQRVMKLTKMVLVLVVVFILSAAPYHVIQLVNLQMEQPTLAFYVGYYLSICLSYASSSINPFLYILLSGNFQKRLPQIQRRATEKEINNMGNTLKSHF

Take `COc1ccc2c(n1)c(CCNC(C)=O)cn2CCNC(=O)CCc1ccc2n1[B-](F)(F)[N+]1=C(c3ccc[nH]3)C=CC1=C2` [Azamelatonin-1-NB590]: the “NanoBRET Fold Response” value at EDNRB (0.1μM tracer) is on record as 0.96; on EDNRB (1μM tracer), 0.96; at MCHR2 (0.1μM tracer), 1.45; at MCHR2 (1μM tracer) it was 0.86.
For `CC(C)N(CC[C@H](c1ccccc1)c1cc(CCNC(=O)c2ccc(CNC(=O)CCc3ccc4n3[B-](F)(F)[N+]3=C(c5ccc[nH]5)C=CC3=C4)cc2)ccc1O)C(C)C` [Tolterodine-BZ-NB590], the “NanoBRET Fold Response” value on EDNRB (EDNRB, tracer 0.1μM) is given as 0.96; on EDNRB (EDNRB, tracer 1μM), 0.98; on MCHR2 (MCHR2, tracer 0.1μM) it was 0.93; on MCHR2 (MCHR2, tracer 1μM), 1.02.
For `O=C(CCc1ccc2n1[B-](F)(F)[N+]1=C(c3ccc[nH]3)C=CC1=C2)NCCOCCOCCNC(=O)OCCOCCN1CCN(C2=Nc3ccccc3Sc3ccccc32)CC1` [Quetiapine-a-2-NB590] the same measures were 0.97, 0.99, 1.03 and 0.74.
On to `Cc1cc2c(s1)Nc1ccccc1N=C2N1CCN(CCCNC(=O)CCOCCOCCOCCOCCNC(=O)CCc2ccc3n2[B-](F)(F)[N+]2=C(c4ccc[nH]4)C=CC2=C3)CC1` [Olanzapine-a-2-NB590], for which the “NanoBRET Fold Response” value on EDNRB (EDNRB, tracer 0.1μM) is 1.00; at EDNRB (EDNRB, tracer 1μM), 0.89; at MCHR2 (MCHR2, tracer 0.1μM) it was 0.98; at MCHR2 (MCHR2, tracer 1μM) it was 1.01.
For the molecule `O=C(CCc1ccc2n1[B-](F)(F)[N+]1=C(c3ccc[nH]3)C=CC1=C2)NCc1ccc(C(=O)NCCOCCOCCNCC(O)COc2cccc3ccccc23)cc1` (stereo not shown) [Propranolol-3-NB590], the “NanoBRET Fold Response” value is 1.05 on EDNRB (EDNRB, 0.1μM); 1.01 on EDNRB (EDNRB, 1μM); 0.91 on MCHR2 (MCHR2, 0.1μM); 1.02 on MCHR2 (MCHR2, 1μM).
As for `CN1CCN(C2=Nc3cc(Cl)ccc3N(CC(=O)NCCOCCOCCOCCOCCNC(=O)CCc3ccc4n3[B-](F)(F)[N+]3=C(c5ccc[nH]5)C=CC3=C4)c3ccccc32)CC1` [Clozapine-c-2-NB590], the “NanoBRET Fold Response” value is 1.00 on EDNRB (EDNRB, 0.1μM tracer); 1.06 at EDNRB (EDNRB, 1μM tracer); 1.06 at MCHR2 (MCHR2, 0.1μM tracer); 1.01 at MCHR2 (MCHR2, 1μM tracer).
Take `O=C(CCc1ccc2n1[B-](F)(F)[N+]1=C(c3ccc[nH]3)C=CC1=C2)NCc1ccc(C(=O)NCCOCCC(=O)N[C@@H]2CC[C@@]3(O)[C@H]4Cc5ccc(O)c6c5[C@@]3(CCN4CC3CC3)[C@H]2O6)cc1` [Naltrexone-3-NB590]: the “NanoBRET Fold Response” value at EDNRB (EDNRB, tracer 0.1μM) is 0.94; on EDNRB (EDNRB, tracer 1μM) it was 1.06; on MCHR2 (MCHR2, tracer 0.1μM), 1.10; on MCHR2 (MCHR2, tracer 1μM), 1.01.
Regarding `CC(C)N(CC[C@H](c1ccccc1)c1cc(CCNC(=O)CCOCCOCCOCCOCCNC(=O)CCc2ccc3n2[B-](F)(F)[N+]2=C(c4ccc[nH]4)C=CC2=C3)ccc1O)C(C)C` [Tolterodine-2-NB590], the “NanoBRET Fold Response” value on EDNRB (EDNRB, tracer 0.1μM) is listed as 0.97; at EDNRB (EDNRB, tracer 1μM) it was 1.03; on MCHR2 (MCHR2, tracer 0.1μM) it was 1.59; at MCHR2 (MCHR2, tracer 1μM), 1.08.
The like results for `Cc1nc2n(c(=O)c1CCN1CCC(c3noc4cc(F)ccc34)CC1)CCCC2OC(=O)NCCOCCOCCOCCOCCNC(=O)CCc1ccc2n1[B-](F)(F)[N+]1=C(c3ccc[nH]3)C=CC1=C2` (stereo not shown) [Risperidone-2-NB590] were, in that order, 1.02, 0.97, 0.96 and 0.97.
Regarding `O=C(CCOCCOCCOCCOCCNC(=O)CCc1ccc2n1[B-](F)(F)[N+]1=C(c3ccc[nH]3)C=CC1=C2)NCCCN1CCN(C2=Nc3cc(Cl)ccc3Nc3ccccc32)CC1` [Clozapine-a-2-NB590], the “NanoBRET Fold Response” value on EDNRB (EDNRB, 0.1μM tracer) turned out to be 1.01; on EDNRB (EDNRB, 1μM tracer) it was 0.93; at MCHR2 (MCHR2, 0.1μM tracer), 0.98; on MCHR2 (MCHR2, 1μM tracer), 1.37.
Turning to `COc1ccc2[nH]c(-c3ccc(CNC(=O)CCOCCOCCOCCOCCNC(=O)CCc4ccc5n4[B-](F)(F)[N+]4=C(c6ccc[nH]6)C=CC4=C5)cc3)c(CCNC(C)=O)c2n1` [AzomelatoninICO9-2-NB590], the “NanoBRET Fold Response” value on EDNRB (0.1μM tracer) worked out at 0.95; on EDNRB (1μM tracer) it was 1.11; on MCHR2 (0.1μM tracer), 1.29; on MCHR2 (1μM tracer), 1.43.
Take `CN1CCN(C2=Nc3cc(Cl)ccc3Nc3ccc(CNC(=O)CCOCCOCCOCCOCCNC(=O)CCc4ccc5n4[B-](F)(F)[N+]4=C(c6ccc[nH]6)C=CC4=C5)cc32)CC1` [Clozapine-b-2-NB590]: the “NanoBRET Fold Response” value was found to be 0.96 on EDNRB (EDNRB, 0.1μM tracer); 0.99 on EDNRB (EDNRB, 1μM tracer); 1.00 at MCHR2 (MCHR2, 0.1μM tracer); 0.97 on MCHR2 (MCHR2, 1μM tracer).
In the case of `COc1ccccc1N1CCN(CCCCN2C(=O)c3ccc(CNC(=O)CCOCCNC(=O)c4ccc(CNC(=O)CCc5ccc6n5[B-](F)(F)[N+]5=C(c7ccc[nH]7)C=CC5=C6)cc4)cc3C2=O)CC1` [NAN-190-3-NB590], the “NanoBRET Fold Response” value at EDNRB (EDNRB, tracer 0.1μM) came to 0.95; at EDNRB (EDNRB, tracer 1μM) it was 1.00; at MCHR2 (MCHR2, tracer 0.1μM), 1.09; at MCHR2 (MCHR2, tracer 1μM), 0.72.
Consider `N#CN=C(NCCCOc1cccc(CN2CCCCC2)c1)NCCNC(=O)CCOCCOCCOCCOCCNC(=O)CCc1ccc2n1[B-](F)(F)[N+]1=C(c3ccc[nH]3)C=CC1=C2` [Aminopotentidine-2-NB590], for which the “NanoBRET Fold Response” value is on record as 1.03 on EDNRB (EDNRB, tracer 0.1μM); 1.02 at EDNRB (EDNRB, tracer 1μM); 0.97 on MCHR2 (MCHR2, tracer 0.1μM); 1.03 at MCHR2 (MCHR2, tracer 1μM).
With `CN(C)CCC=C1c2ccccc2CCc2ccc(C(=O)NCCNC(=O)CCOCCOCCOCCOCCNC(=O)CCc3ccc4n3[B-](F)(F)[N+]3=C(c5ccc[nH]5)C=CC3=C4)cc21` [Amitriptyline-b-2-NB590], the “NanoBRET Fold Response” value on EDNRB (setting [1]) was 0.83; at MCHR2 (tracer at 0.1μM, listed as amitriptyline-b-2-NB590), 0.85; at MCHR2 (setting [1]), 0.90.
With `COc1ccccc1N1CCN(CCCCN2C(=O)c3ccc(CNC(=O)CCOCCOCCOCCOCCNC(=O)CCc4ccc5n4[B-](F)(F)[N+]4=C(c6ccc[nH]6)C=CC4=C5)cc3C2=O)CC1` [NAN-190-2-NB590], the “NanoBRET Fold Response” value is given as 1.05 on EDNRB (EDNRB, tracer 0.1μM); 0.99 at EDNRB (EDNRB, tracer 1μM); 0.99 on MCHR2 (MCHR2, tracer 0.1μM); 0.94 at MCHR2 (MCHR2, tracer 1μM).
As to `CN(CCC=C1c2ccccc2CCc2ccccc21)C(=O)CCOCCOCCOCCOCCNC(=O)CCc1ccc2n1[B-](F)(F)[N+]1=C(c3ccc[nH]3)C=CC1=C2` [Amitriptyline-e-2-NB590], on EDNRB (tracer at 1μM), the “NanoBRET Fold Response” value was 1.01.
